{"source": "patent US12686877B2", "about": "“Method for producing olivetolic acid in an amoebozoa host species” (LEIBNIZ-INSTITUT FÜR NATURSTOFF-FORSCHUNG UND …, priority 2020, dated 2026)", "tested_on": "D. discoideum pChR2 strain", "assay": "Growth and metabolic activity monitoring (respiration activity, oxygen transfer rate)", "type": "cell-based, Dictyostelium discoideum", "settings": "pChR2 strain supplemented with 1 mM hexanoic acid", "procedure": "Growth and metabolic activity monitoring. For determining the respiration activity, the D. discoideum pChR2, pChR5 and pChR7 strains were grown at an initial density of 1×10^6 cells/mL of HL5 medium supplemented with 1% [w/v] glucose and 20 μg/mL G418 in the presence or absence of 20 μg/mL doxycycline and 1 mM hexanoic acid as indicated. The respiration activity was measured by using the Kuhner TOM (transfer-rate online measurement) system equipped with oxygen partial pressure sensors and infrared sensors to calculate the oxygen transfer rate (OTR) and the carbon dioxide transfer rate (CTR). The cultures were grown in 250 mL TOM flasks for 144 h at 140 rpm and 22° C. without interruption to allow a constant OTR assessment. A filling volume of 52 mL was calculated in order to allow a maximum OTR of 8.5 mmol/L/h43, similar to culture conditions of previous experiments using 25 mL per 100 mL Erlenmeyer shake flasks.", "data": [{"smiles": "CCCCCC(=O)O", "note": "[hexanoic acid]", "values": [{"measurement": "effect on growth", "result": "initial growth inhibitory effect"}, {"measurement": "effect on maximum OTR", "result": "did not change the maximum OTR"}, {"measurement": "time at which the oxygen transfer rate (OTR) peaked", "setting": "77 h without supplementation", "result": 92, "unit": "h"}]}]}
